Laboratory results taken from patent US8716355B2, “Hydroxylated tolans and related compounds in the treatment of a cancer” (Kent State University, priority 2007, dated 2014).
Like-named read-outs stand apart in the source and are kept apart here.

Tests used:
DU145 = assay: MTT cytotoxicity, DU145 prostate cancer cells; format: cell-based, human; conditions: for IC50: MTT, read-out: CD50 against DU145
Experimental: As a first step, the antitumor activity of the tolans was assessed against a panel of three cancer cells lines that produce solid tumors upon implantation into animals. DU145 is an androgen-independent prostate cancer cells. T24 is a transitional cell bladder carcinoma cell. MDAH2274 (“MDAH) is an endometroid ovarian adenocarcinoma cell. To assess the selectivity of this antitumor activity, the toxicity of the tolans to normal human fibroblasts (MHRF) was examined. Subsequently, studies with Tolan-3 (KST-201) were expanded to test its action on a wide range of tumor cell lines.
(§1) Cell killing was evaluated using the colorimetric MTT assay. The assay measures the formation of a colored product from a chromogenic precursor, the tetrazole 3-[4,5-dimethylthiazol-2-yl]-2,5 diphenyltetrazolium bromide (MTT). The yellow MTT is reduced to purple formazan in the mitochondria of living cells. A solubilization solution (typically dimethyl sulfoxide or sodium dodecyl sulfate in dilute hydrochloric acid) is added to dissolve the insoluble purple formazan product into a colored solution. The absorbance of this colored solution is quantified by measuring at a certain wavelength (usually between 500 and 600 nm) by a spectrophotometer. The amount of purple formazan product generated is proportional to the number of viable cells (Mosmann, T., 1983, J. Immunol. Meth. 65:55-63; Wilson, A. P., Cytotoxicity and Viability Assays. In: Animal Cell Culture: A Practical Approach, 3rd ed. (Masters, J R W, ed.) Oxford University Press: Oxford, Vol. 1, pp. 175-219. 2000). This MTT assay is used widely to assess the cytotoxicity and selectivity of compounds such as anti-cancer drugs. The assay is suitable for rapid toxicity characterization of a test agent such as a drug formulation. […] A lower CD50 indicates a greater cytotoxic activity (as a lower amount of the agent is needed to achieve a fixed level of cytotoxicity). Two agents can be compared by examining the fold-increase or decrease in their CD50 values.

Mushroom tyrosinase = assay: Inhibition of mushroom tyrosinase activity; format: biochemical; conditions: concentration not given
Experimental: All chemical used for reagents were purchased from Sigma Chemical Company. KST201 at each tested concentration (1000, 250 and 100 μM) was dissolved in 10% ethanol from a master mixture of the drug prepared at 0.1M in 100% ethanol.
Mushroom tyrosinase (Sigma) was diluted in 50 mM phosphate buffer, pH 6.5 to yield a concentration of 16 U/μl. […] A master mix containing 0.5 mM L-DOPA [3,4-dihydroxy-1-phenylalanine], 10 mM Sodium L-tyrosine in 50 mM phosphate buffer, pH 6.5 was prepared. The KST-201 dilutions were preincubated with the enzyme for 20 minutes. The samples were pipetted into 24 well plates and the master mixture added quickly. The reaction was read using a kinetic format in which wells were read every 30 seconds over a course of 10 minutes at a wavelength of 475 nm using a Synergy HT Plate reader. A kinetic curve was generated for each sample compared to a total reaction with mushroom tyrosinase without a drug (total).

A375 = assay: MTT cytotoxicity, A375 melanoma; format: cell-based; conditions: Homo sapiens, A-375, 72 h; 3 Days; read-out: CD50 (μM) A375
Experimental: as §1, with “Two agents can be compared by examining the fold-increase or decrease in their CD50 values.” left out

NF-κB p65 = NF-κB p65 DNA-binding activity in DU145 cells (ELISA); format: cell-based, human; conditions: for DNA binding of p65, % of basal activity: 100 μM
Experimental: An ELISA kit (Pierce, Rockford, Ill.) was used to detect the active forms of NF-κB p65 by measuring its binding to a consensus DNA sequence. A primary antibody specific for p65 and a secondary horse-radish peroxidase (HRP)-conjugated antibody were used sequentially to produce immobilized p65-HRP complexes. A chemiluminescent substrate for HRP was added and the reaction read using the Fluoroskan Ascent FL plate reader
An ELISA kit (Pierce, Rockford, Ill.) was used to detect the active forms of NF-κB p65 by measuring its binding to a consensus DNA sequence. […] As controls, untreated cells were prepared under the same conditions. Cells were collected by scraping and incubated in ice-cold RIPA lysis buffer containing 1% NP40, 0.5% sodium deoxycholate, 0.1% SDS and protease inhibitor cocktail. After centrifugation, the supernatant was transferred to a streptavidin-coated 96-well plate. Active p65 in the sample binds to the immobilized DNA molecules.
To ensure the signal specificity, competitive DNA fragments containing a NF-κB binding site were used to prevent the binding of NF-κB to the consensus sequence. A primary antibody specific for p65 and a secondary HRP-conjugated antibody were added to each well sequentially, resulting in an immobilized p65-HRP complex. Unbound antibodies were washed away. A mixture of luminol/enhancer and peroxide solution was added into each well as a chemiluminescent substrate for HRP. The chemiluminescent signal, proportional to the relative amount of active p65 in the sample, was detected using the Fluoroskan Ascent FL plate reader (Thermo, Waltham, Mass.).
DNA sequences containing p65-binding site were immobilized to wells of 96-well plates, allowing activated p65 to bind. After washing, the amount of bound p65 was detected and quantified by the above method. The DNA-binding of active p65 was determined by the intensity of chemiluminescence produced by DNA-p65-HRP complex immobilized on well surfaces. The results represent the mean±SD of triplicate determinations. An inhibitor of p65 binding to DNA was added to confirm specificity. […]

HCT116 = assay: MTT cytotoxicity, HCT116 colon; format: cell-based; conditions: Homo sapiens, HCT-116, 72 h; 3 Days; read-out: CD50 (μM) HCT116
Experimental: as §1, with “Two agents can be compared by examining the fold-increase or decrease in their CD50 values.” left out

WiDR = assay: MTT cytotoxicity, WiDR colon; format: cell-based; conditions: Homo sapiens, 72 h, 3 Days, read-out: CD50 (μM) WiDR
Experimental: as §1, with “Two agents can be compared by examining the fold-increase or decrease in their CD50 values.” left out

[1] = Homo sapiens, DU-145, 24 h, 1 day incubation
[2] = Homo sapiens, DU-145, 48 h, 2 days incubation
[3] = Homo sapiens, DU-145, 72 h, 3 days incubation

Row | Structure (SMILES) | IC50 (DU145; [1]) [µM] | IC50 (DU145; [2]) [µM] | IC50 (DU145; [3]) [µM] | IC50 (DU145; 1 day incubation) [µM] | IC50 (DU145; 3 days incubation) [µM] | % inhibition of mushroom tyrosinase activity (Mushroom tyrosinase) [%] | IC50 (A375) [µM] | DNA binding of p65, % of basal activity (NF-κB p65; 12 hours) [%] | DNA binding of p65, % of basal activity (NF-κB p65; 24 hours) [%] | DNA binding activity of p65, % of basal activity (NF-κB p65; 24-hour treatment at 5, 25 and 50 μM) [%] | IC50 (HCT116) [µM] | IC50 (WiDR) [µM] | Fold more potent against DU145 cells compared to control MHRF fibroblasts (DU145) [fold] | Fold more toxic to DU145 prostate cancer cells than resveratrol (DU145; Table 15 vs Table 14) [fold] | Reduction of DNA-binding activity of NF-κB by at least 50% (NF-κB p65; 12-hour treatment) | NF-κB inhibition compared with resveratrol (NF-κB p65; 24-hour treatment, 50 and 100 μM)
1 | Oc1ccc(/C=C/c2cc(O)cc(O)c2)cc1 [Resveratrol, 3,5,4′-trihydroxy-trans-stilbene, reference compound] | 92 | 58.2 ± 0.4 | 28 | 92.2 ± 2.9 | 27.9 ± 0.65 | 59.9±7.4 | 19 ± 0.2 | 55.3 | 40.2 | ~80 | 94 ± 0.1 | 142 ± 6.4 | – | – | – | –
2 | Oc1ccc(C#Cc2ccc(O)cc2)cc1 [KST-201, 4,4′-dihydroxytolan] | 57 | 16.8 ± 0.63 | 9.4 | 57.3 ± 0.81 | – | 59.2±13 | 4.6 ± 0.1 | – | – | – | 129 ± 4 | 80 ± 0.9 | 16 | 3 | not sufficient to reduce DNA-binding activity of NF-κB | more effective inhibitor of NF-κB
